Experimental data: patent US9499550B2 (BRISTOL-MYERS SQUIBB COMPANY, priority 2012, dated 2016)

Key:
[1] = test system: HCV genotype 1a (H77 strain) replicon in HUH-7 cells; test: HCV replicon luciferase reporter assay, genotype 1a; assay type: cell-based; settings: Hepatitis C virus, Huh-7, 72 h, HCV genotype 1a replicon luciferase assay, 3 days incubation, range class, read-out: LE_1a (EC50, range)
In short: (§1)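 Replicon inhibition for both genotypes was measured as Renilla luciferase signal (EnduRen, 7.5 μM final, 2 h) after 3-day, 37° C exposure of replicon-bearing HUH-7 cells in 4% FCS DMEM, 0.5% DMSO. The 1b construct carries S1179I; the 1a H77 construct carries P1496L and S2204I. Twenty-point, 3-fold dilutions were fitted four-parametrically for EC50, and CC50 was taken from multiplexed Cell Titer-Blue.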

[2] = test system: HCV genotype 1b (Con1) replicon in HUH-7 cells; test: HCV replicon luciferase reporter assay, genotype 1b; assay type: cell-based; settings: Hepatitis C virus, Huh-7, 72 h, HCV genotype 1b replicon luciferase assay, 3 days incubation, range class, read-out: LE_1b (EC50, range)
In short: as §1

COc1ccc2c(O[C@@H]3C[C@H]4C(=O)N[C@]5(C(=O)NS(=O)(=O)C6CC6)C[C@H]5/C=C\CC[C@H](C)C[C@@H](C)[C@H](NC(=O)OCC5(C)CC5)C(=O)N4C3)nc(-c3ccc(OC(C)C)c(F)c3)cc2c1 [Compound 3065, (1-methylcyclopropyl)methyl ((2R,6S,7R,9S,13aS,14aR,16aS,Z)-14a-((cyclopropylsulfonyl)carbamoyl)-2-((3-(3-fluoro-4-isopropoxyphenyl)-6-methoxyisoquinolin-1-yl)oxy)-7,9-dimethyl-5,16-dioxo-1,2,3,5,6,7,8,9,10,11,13a,14,14a,15,16,16a-hexadecahydrocyclopropa[e]pyrrolo[1,2-a][1,4]diazacyclopentadecin-6-yl)carbamate]
EC50 [1]: 4.82 to 103 nM | EC50 [2]: < 5.46 nM

COc1ccc2c(O[C@@H]3C[C@H]4C(=O)N[C@]5(C(=O)NS(=O)(=O)C6CC6)C[C@H]5/C=C\CC[C@@H](C)C[C@@H](C)[C@H](NC(=O)OCC5(C)CC5)C(=O)N4C3)nc(-c3ccc(OC(C)C)c(F)c3)cc2c1 [Compound 3066, (1-methylcyclopropyl)methyl ((2R,6S,7R,9R,13aS,14aR,16aS,Z)-14a-((cyclopropylsulfonyl)carbamoyl)-2-((3-(3-fluoro-4-isopropoxyphenyl)-6-methoxyisoquinolin-1-yl)oxy)-7,9-dimethyl-5,16-dioxo-1,2,3,5,6,7,8,9,10,11,13a,14,14a,15,16,16a-hexadecahydrocyclopropa[e]pyrrolo[1,2-a][1,4]diazacyclopentadecin-6-yl)carbamate]
EC50 [1]: < 5.46 nM | EC50 [2]: < 5.46 nM

COc1ccc2c(O[C@@H]3C[C@H]4C(=O)N[C@]5(C(=O)NS(=O)(=O)C6(C)CC6)C[C@H]5/C=C\CC[C@H](C)C[C@@H](C)[C@H](NC(=O)OCC5(C)CC5)C(=O)N4C3)nc(-c3ccc(OC(C)C)c(F)c3)cc2c1 [Compound 3067, (1-methylcyclopropyl)methyl ((2R,6S,7R,9S,13aS,14aR,16aS,Z)-2-((3-(3-fluoro-4-isopropoxyphenyl)-6-methoxyisoquinolin-1-yl)oxy)-7,9-dimethyl-14a-(((1-methylcyclopropyl)sulfonyl)carbamoyl)-5,16-dioxo-1,2,3,5,6,7,8,9,10,11,13a,14,14a,15,16,16a-hexadecahydrocyclopropa[e]pyrrolo[1,2-a][1,4]diazacyclopentadecin-6-yl)carbamate]
EC50 [1]: 4.82 to 103 nM | EC50 [2]: < 5.46 nM

COc1ccc2c(O[C@@H]3C[C@H]4C(=O)N[C@]5(C(=O)NS(=O)(=O)C6(C)CC6)C[C@H]5/C=C\CC[C@@H](C)C[C@@H](C)[C@H](NC(=O)OCC5(C)CC5)C(=O)N4C3)nc(-c3ccc(OC(C)C)c(F)c3)cc2c1 [Compound 3068, (1-methylcyclopropyl)methyl ((2R,6S,7R,9R,13aS,14aR,16aS,Z)-2-((3-(3-fluoro-4-isopropoxyphenyl)-6-methoxyisoquinolin-1-yl)oxy)-7,9-dimethyl-14a-(((1-methylcyclopropyl)sulfonyl)carbamoyl)-5,16-dioxo-1,2,3,5,6,7,8,9,10,11,13a,14,14a,15,16,16a-hexadecahydrocyclopropa[e]pyrrolo[1,2-a][1,4]diazacyclopentadecin-6-yl)carbamate]
EC50 [1]: < 5.46 nM | EC50 [2]: < 5.46 nM

COc1ccc2c(O[C@@H]3C[C@H]4C(=O)N[C@]5(C(=O)NS(=O)(=O)C6CC6)C[C@H]5/C=C\CC[C@H](C)C[C@@H](C)[C@H](NC(=O)O[C@@H]5C[C@@H]6C[C@@H]6C5)C(=O)N4C3)nc(-c3ccc(OC(C)C)c(F)c3)cc2c1 [Compound 3069, (1R,3r,5S)-bicyclo[3.1.0]hexan-3-yl((2R,6S,7R,9S,13aS,14aR,16aS,Z)-14a-((cyclopropylsulfonyl)carbamoyl)-2-((3-(3-fluoro-4-isopropoxyphenyl)-6-methoxyisoquinolin-1-yl)oxy)-7,9-dimethyl-5,16-dioxo-1,2,3,5,6,7,8,9,10,11,13a,14,14a,15,16,16a-hexadecahydrocyclopropa[e]pyrrolo[1,2-a][1,4]diazacyclopentadecin-6-yl)carbamate]
EC50 [1]: 4.82 to 103 nM | EC50 [2]: < 5.46 nM

COc1ccc2c(O[C@@H]3C[C@H]4C(=O)N[C@]5(C(=O)NS(=O)(=O)C6CC6)C[C@H]5/C=C\CC[C@@H](C)C[C@@H](C)[C@H](NC(=O)O[C@@H]5C[C@@H]6C[C@@H]6C5)C(=O)N4C3)nc(-c3ccc(OC(C)C)c(F)c3)cc2c1 [Compound 3070, (1R,3r,5S)-bicyclo[3.1.0]hexan-3-yl((2R,6S,7R,9R,13aS,14aR,16aS,Z)-14a-((cyclopropylsulfonyl)carbamoyl)-2-((3-(3-fluoro-4-isopropoxyphenyl)-6-methoxyisoquinolin-1-yl)oxy)-7,9-dimethyl-5,16-dioxo-1,2,3,5,6,7,8,9,10,11,13a,14,14a,15,16,16a-hexadecahydrocyclopropa[e]pyrrolo[1,2-a][1,4]diazacyclopentadecin-6-yl)carbamate]
EC50 [1]: < 5.46 nM | EC50 [2]: < 5.46 nM

COc1ccc2c(O[C@@H]3C[C@H]4C(=O)N[C@]5(C(=O)NS(=O)(=O)C6(C)CC6)C[C@H]5/C=C\CC[C@H](C)C[C@@H](C)[C@H](NC(=O)O[C@@H]5C[C@@H]6C[C@@H]6C5)C(=O)N4C3)nc(-c3ccc(OC(C)C)c(F)c3)cc2c1 [Compound 3071, (1R,3r,5S)-bicyclo[3.1.0]hexan-3-yl((2R,6S,7R,9S,13aS,14aR,16aS,Z)-2-((3-(3-fluoro-4-isopropoxyphenyl)-6-methoxyisoquinolin-1-yl)oxy)-7,9-dimethyl-14a-(((1-methylcyclopropyl)sulfonyl)carbamoyl)-5,16-dioxo-1,2,3,5,6,7,8,9,10,11,13a,14,14a,15,16,16a-hexadecahydrocyclopropa[e]pyrrolo[1,2-a][1,4]diazacyclopentadecin-6-yl)carbamate]
EC50 [1]: 4.82 to 103 nM | EC50 [2]: < 5.46 nM

COc1ccc2c(O[C@@H]3C[C@H]4C(=O)N[C@]5(C(=O)NS(=O)(=O)C6(C)CC6)C[C@H]5/C=C\CC[C@@H](C)C[C@@H](C)[C@H](NC(=O)O[C@@H]5C[C@@H]6C[C@@H]6C5)C(=O)N4C3)nc(-c3ccc(OC(C)C)c(F)c3)cc2c1 [Compound 3072, (1R,3r,5S)-bicyclo[3.1.0]hexan-3-yl((2R,6S,7R,9R,13aS,14aR,16aS,Z)-2-((3-(3-fluoro-4-isopropoxyphenyl)-6-methoxyisoquinolin-1-yl)oxy)-7,9-dimethyl-14a-(((1-methylcyclopropyl)sulfonyl)carbamoyl)-5,16-dioxo-1,2,3,5,6,7,8,9,10,11,13a,14,14a,15,16,16a-hexadecahydrocyclopropa[e]pyrrolo[1,2-a][1,4]diazacyclopentadecin-6-yl)carbamate]
EC50 [1]: < 5.46 nM | EC50 [2]: < 5.46 nM

COc1ccc2c(O[C@@H]3C[C@H]4C(=O)N[C@]5(C(=O)NS(=O)(=O)C6CC6)C[C@H]5/C=C\CC[C@H](C)C[C@@H](C)[C@H](NC(=O)O[C@H](C)C(F)(F)F)C(=O)N4C3)nc(-c3ccc(OC(C)C)c(F)c3)cc2c1 [Compound 3073, (R)-1,1,1-trifluoropropan-2-yl ((2R,6S,7R,9S,13aS,14aR,16aS,Z)-14a-((cyclopropylsulfonyl)carbamoyl)-2-((3-(3-fluoro-4-isopropoxyphenyl)-6-methoxyisoquinolin-1-yl)oxy)-7,9-dimethyl-5,16-dioxo-1,2,3,5,6,7,8,9,10,11,13a,14,14a,15,16,16a-hexadecahydrocyclopropa[e]pyrrolo[1,2-a][1,4]diazacyclopentadecin-6-yl)carbamate]
EC50 [1]: 4.82 to 103 nM | EC50 [2]: < 5.46 nM

COc1ccc2c(O[C@@H]3C[C@H]4C(=O)N[C@]5(C(=O)NS(=O)(=O)C6CC6)C[C@H]5/C=C\CC[C@@H](C)C[C@@H](C)[C@H](NC(=O)O[C@H](C)C(F)(F)F)C(=O)N4C3)nc(-c3ccc(OC(C)C)c(F)c3)cc2c1 [Compound 3074, (R)-1,1,1-trifluoropropan-2-yl ((2R,6S,7R,9R,13aS,14aR,16aS,Z)-14a-((cyclopropylsulfonyl)carbamoyl)-2-((3-(3-fluoro-4-isopropoxyphenyl)-6-methoxyisoquinolin-1-yl)oxy)-7,9-dimethyl-5,16-dioxo-1,2,3,5,6,7,8,9,10,11,13a,14,14a,15,16,16a-hexadecahydrocyclopropa[e]pyrrolo[1,2-a][1,4]diazacyclopentadecin-6-yl)carbamate]
EC50 [1]: < 5.46 nM | EC50 [2]: < 5.46 nM

COc1ccc2c(O[C@@H]3C[C@H]4C(=O)N[C@]5(C(=O)NS(=O)(=O)C6(C)CC6)C[C@H]5/C=C\CC[C@H](C)C[C@@H](C)[C@H](NC(=O)O[C@H](C)C(F)(F)F)C(=O)N4C3)nc(-c3ccc(OC(C)C)c(F)c3)cc2c1 [Compound 3075, (R)-1,1,1-trifluoropropan-2-yl ((2R,6S,7R,9S,13aS,14aR,16aS,Z)-2-((3-(3-fluoro-4-isopropoxyphenyl)-6-methoxyisoquinolin-1-yl)oxy)-7,9-dimethyl-14a-(((1-methylcyclopropyl)sulfonyl)carbamoyl)-5,16-dioxo-1,2,3,5,6,7,8,9,10,11,13a,14,14a,15,16,16a-hexadecahydrocyclopropa[e]pyrrolo[1,2-a][1,4]diazacyclopentadecin-6-yl)carbamate]
EC50 [1]: 4.82 to 103 nM | EC50 [2]: < 5.46 nM

COc1ccc2c(O[C@@H]3C[C@H]4C(=O)N[C@]5(C(=O)NS(=O)(=O)C6(C)CC6)C[C@H]5/C=C\CC[C@@H](C)C[C@@H](C)[C@H](NC(=O)O[C@H](C)C(F)(F)F)C(=O)N4C3)nc(-c3ccc(OC(C)C)c(F)c3)cc2c1 [Compound 3076, (R)-1,1,1-trifluoropropan-2-yl ((2R,6S,7R,9R,13aS,14aR,16aS,Z)-2-((3-(3-fluoro-4-isopropoxyphenyl)-6-methoxyisoquinolin-1-yl)oxy)-7,9-dimethyl-14a-(((1-methylcyclopropyl)sulfonyl)carbamoyl)-5,16-dioxo-1,2,3,5,6,7,8,9,10,11,13a,14,14a,15,16,16a-hexadecahydrocyclopropa[e]pyrrolo[1,2-a][1,4]diazacyclopentadecin-6-yl)carbamate]
EC50 [1]: < 5.46 nM | EC50 [2]: < 5.46 nM
